The record followed here is ChEMBL document CHEMBL3739270 (Medchemcomm, 2015).

The structures appear in SMILES notation.

Format in all cases: cell-based
For one assay, the system named is CHO. In words: Selectivity ratio, ratio of Ki for human melatonin receptor MT2 to Ki for human melatonin receptor MT1 expressed in CHO cells.
The target of assay [1] is T1, Melatonin receptor type 1B (Homo sapiens, UniProt P49286).
T1 sequence (P49286 whole entry): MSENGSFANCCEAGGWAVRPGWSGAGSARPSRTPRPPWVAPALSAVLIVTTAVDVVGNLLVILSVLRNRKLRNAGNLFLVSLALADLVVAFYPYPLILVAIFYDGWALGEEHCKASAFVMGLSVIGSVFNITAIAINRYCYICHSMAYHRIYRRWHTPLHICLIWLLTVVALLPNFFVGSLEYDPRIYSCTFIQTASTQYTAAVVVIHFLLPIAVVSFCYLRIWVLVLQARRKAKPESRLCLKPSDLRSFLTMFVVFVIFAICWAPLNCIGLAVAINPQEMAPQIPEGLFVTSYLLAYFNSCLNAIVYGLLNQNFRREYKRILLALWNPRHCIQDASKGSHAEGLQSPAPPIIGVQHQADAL
The experiment in a line: Displacement of 2-[125I]-iodomelatonin from human melatonin receptor MT2 expressed in CHO cells after 1 hr by gamma counting analysis.

The target of assay [2] is Melatonin receptor type 1A (Homo sapiens, UniProt P48039). The experiment in a line: Displacement of 2-[125I]-iodomelatonin from human melatonin receptor MT1 expressed in CHO cells after 1 hr by gamma counting analysis.
A further assay relates to CHO-K1. In words: Selectivity ratio, ratio of Ki for human melatonin receptor MT2 to Ki for human melatonin receptor MT1 expressed in CHO-K1 cells.
The next assay relates to HEK293. The experiment in a line: Selectivity ratio, ratio of Ki for human melatonin receptor MT2 to Ki for human melatonin receptor MT1 expressed in HEK293 cells.

Sequence of Melatonin receptor type 1A (P48039 whole entry): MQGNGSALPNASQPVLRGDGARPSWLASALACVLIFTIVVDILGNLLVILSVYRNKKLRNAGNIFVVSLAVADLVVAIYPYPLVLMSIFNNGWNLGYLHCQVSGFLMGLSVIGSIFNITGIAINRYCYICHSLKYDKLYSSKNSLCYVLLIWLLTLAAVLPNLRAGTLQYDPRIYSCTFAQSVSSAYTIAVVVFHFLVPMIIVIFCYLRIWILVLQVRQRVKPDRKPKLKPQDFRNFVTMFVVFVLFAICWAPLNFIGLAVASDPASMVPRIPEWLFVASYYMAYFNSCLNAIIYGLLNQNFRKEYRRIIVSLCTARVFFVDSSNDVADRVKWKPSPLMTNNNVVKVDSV

With `O=C(NCCc1c[nH]c2ccc(OCCCOc3ccccc3)cc12)C(F)F`, in the assay with CHO, the Ratio Ki came out at 10. Moreover, the Ki came out at 7.8 nM in assay [1] (read-out: Ki) and 6.2 nM in assay [2] (read-out: Ki).
On to `O=C(NCCc1cccc2ccc(OCCCOc3ccc4cccc(CCNC(=O)C(F)F)c4c3)cc12)C(F)F`, for which, in the assay on CHO, the Ratio Ki is 7. Also, the values for the Ki in assay [1] (read-out: Ki) and in assay [2] (read-out: Ki) were 8.1 nM and 1.2 nM, respectively.
On the same counts, the results for `COc1ccc2cccc(CCNC(=O)C(F)F)c2c1` are 16, 0.85 nM and 0.054 nM.
Turning to `CC(=O)NCCc1cccc2ccc(OCCCCc3ccccc3)cc12`, the Ki in assay [1] (read-out: Ki) and in assay [2] (read-out: Ki) was 9 nM each time.
As to `COc1ccc2cccc(CCNC(=O)C(Cl)Cl)c2c1`, the Ki in assay [1] (read-out: Ki) was 2 nM; in assay [2] (read-out: Ki), 5 nM.
For the compound `CC(=O)NCCc1cccc2ccc(OCCCc3ccccc3)cc12`, the Ki in assay [1] (read-out: Ki) is 9 nM; in assay [1] (read-out: pKi (converted)), 21.4 nM; in assay [2] (read-out: Ki), 9 nM; in assay [2] (read-out: pKi (converted)) it was 25.1 nM.
`CC(=O)NCCc1cccc2ccc(OCCCOc3ccccc3)cc12`: the Ki came out at 44 nM in assay [1] (read-out: Ki) and 35 nM in assay [2] (read-out: Ki).
Regarding `O=C(NCCCc1cccc2nc(CCCCc3ccccc3)oc12)C1CC1`, in the assay on CHO-K1, the Ratio Ki was determined as 30.
As for `COc1ccc2cccc(CCNC(=O)C(F)(F)F)c2c1`, the Ki in assay [1] (read-out: Ki) stood at 2 nM; in assay [2] (read-out: Ki), 5 nM.
In the case of `CC(=O)NCCc1cccc2ccc(OCCCCOc3ccc4cccc(CCNC(C)=O)c4c3)cc12`, in the assay with HEK293, the Ratio Ki turned out to be 120.
Consider `CC(=O)NCCc1cccc2ccc(OCCCOc3ccc4cccc(CCNC(C)=O)c4c3)cc12`, for which the Ki is 355 nM in assay [1] (read-out: pKi (converted)) and 112 nM in assay [2] (read-out: Ki).
For `O=C(NCCc1cccc2ccc(OCCCCOc3ccc4cccc(CCNC(=O)C(F)F)c4c3)cc12)C(F)F`, the results for the Ki in assay [1] (read-out: Ki) and in assay [2] (read-out: Ki) were 15 nM and 12 nM, respectively.
On to `CCCCCCOc1ccc2c(c1)C(CCNC(C)=O)CCO2` (stereo not drawn), for which the Ratio Ki with CHO-K1 was 30.
